Experimental data from US7888389B2 (The Regents of the University of Michigan, priority 2002, dated 2011).

Experiment: Open label study of TM for initial treatment of Wilson's disease
Assay type: in vivo, human
Excerpt: The inventors have carried out an open label study of the use of TM for initial treatment of neurologically presenting Wilson's disease patients for the past several years. The inventors have developed both a spectrophotometric and bioassay for the activity of the drug, to evaluate stability, and assure potency of the drug being administered (Brewer et al., 1991a; Brewer et al., 1994b). The drug slowly loses potency when exposed to air.
The inventors have now treated a total of 51 Wilson's disease patients with TM, all of whom presented with neurological or psychiatric disease, in an open label study. These patients were all diagnosed by standard criteria. […] Some of them were treated briefly with other agents prior to this trial. Two patients had psychiatric but not neurological symptoms.
With three exceptions in the earliest part of the study, all patients received a dose of 20 mg tid with meals, or qid with three meals and a snack. Thus, the only difference between a patient receiving 120 mg and 140 mg total dose is that the former was receiving 20 mg tid, or 60 mg, with meals, and the latter was receiving 20 mg qid, or 80 mg with meals plus a snack. The rest of the total daily dose was divided up into three equal doses and given between meals.

[1] = among the seven patients with anemia

Question: With tetrathiomolybdate [TM] as the substance, how does the “cases of reversible anemia” value (45 patients, eight weeks TM as initial therapy) read?
Answer: 11.1%

Question: What about the “patients with reversible anemia/bone marrow depression” value (51 patients treated) of the same substance?
Answer: seven

Question: And the “patients with reduction in platelet count” value [1]?
Answer: Three

Question: And the “patients with reduction in white blood cell count” value [1]?
Answer: four

Question: And the overtreatment (dose of 180 mg/day or over)?
Answer: 6 of 37 patients

Question: And the overtreatment (dose of 150 or lower)?
Answer: 1 of 13 patients

Question: What about the “time to close the plasma copper-molybdenum gap (free copper to zero)” value (first patient) of the same substance?
Answer: 16 days

Question: What about the “patients with elevation of transaminase values (AST, ALT)” value (in vivo) of the same substance?
Answer: four

Question: What about the “quantitative speech exam scores” value (initial 8 weeks of TM therapy) of the same substance?
Answer: No patient shows significant (more than 2.0 units) reduction in scores

Question: What about the “average fall in hemoglobin” value (the seven patients with anemia) of the same substance?
Answer: 3.4 g %

Question: And the “patients with significant neurological worsening (change of more than 5 units)” value (weeks of TM administration)?
Answer: 4 % of the sample
